Data set [1] is described as follows: log Kow (octanol/water partition coefficient). The data set is classed as physicochemical. The conditions noted are these: for Log Kow: base-10 logarithm of ratio of equilibrium concentrations in octanol and water. The source says:
Preferably the system is an oil reservoir and the property is the residual oil saturation. Thus, preferably the use is of a partitioning tracer for determining residual oil saturation, the partitioning tracer comprising a sulfone compound having a log Kow value in the range −0.5 to 3. Preferably the log Kow value is in the range 0.5 to 1.5. Those ranges may give optimum partitioning into the oil in the formation. If the log Kow value is too high, the partitioning tracer will spend too long in the oil and will not be released from the well in a reasonable time, or even at all. If the log Kow value is too low, the partitioning tracer will largely remain in the water phase and there will not be a sufficient differential between the release of the conservative and partitioning tracers. The log Kow value is the base-10 logarithm of the ratio of the equilibrium concentrations of the tracer in octanol and water and can be determined for example, by the method described in “Experimental Aspects of Partitioning Tracer Tests for Residual Oil Saturation Determination with FIA-based Laboratory Equipment, SPE Reservoir Engineering, May 1990, pages 239-244”.
The log Kow values are either experimentally determined or estimated using KOWWIN v1.68.

`OCc1ccc(Cl)cc1` [4-Chlorobenzyl alcohol, 4-chlorobenzyl alcohol]: in data set [1], the “Log Kow” value amounted to 1.72. Besides, the “Vapour Pressure” value in “Vapour pressure” was 0.00268 mm Hg. Regarding `OC(C(F)(F)F)C(F)(F)F` [1,1,1,3,3,3-Hexafluoro-2-propanol, 1,1,1,3,3,3-hexafluoro-2-propanol], in data set [1], the “Log Kow” value is on record as 1.66. In addition, the “Vapour Pressure” value in “Vapour pressure” was 156 mm Hg. For the molecule `CS(C)(=O)=O` [dimethylsulfone], in data set [1], the “log Kow value” is given as −1.11. Regarding `CS(=O)(=O)c1ccc(Cl)cc1` [4-Chlorophenyl methyl sulfone, 4-chlorophenyl methyl sulfone], the “Log Kow” value in data set [1] is recorded as 1.21.
